Active and inactive are the calls of the source. The calls are words filed in the database; no cut-off is given here.
Columns and labels:
Nucleic Acid [1] = experiment: Binding affinity to STAT3 G-quadruplex in rat cardiomyocytes assessed as down regulation of STAT3 gene expression at 10 uM after 48 hrs by RT-PCR analysis; assay type: cell-based
Nucleic Acid [2] = experiment: Binding affinity to STAT3 G-quadruplex in 3'-flanking region 5'-GGGCTGGGGATGGGGAGGGGG-3' assessed as intensity ratio of all complex ions to the sum of all G-quadruplex and complex ions at 20 uM by ESI mass spectroscopy relative to control; assay type: nucleic-acid assay
Nucleic Acid [3] = experiment: Binding affinity to STAT3 G-quadruplex in rat cardiomyocytes assessed as down regulation of STAT3 protein expression at 10 uM after 48 hrs by Western blot analysis; assay type: cell-based
Nucleic Acid [4] = experiment: Binding affinity to STAT3 G-quadruplex in 3'-flanking region 5'-GGGCTGGGGATGGGGAGGGGG-3' assessed as melting temperature at 20 uM by UV-Vis spectrophotometry (reference value: 58 degC); assay type: nucleic-acid assay
Nucleic Acid [5] = experiment: Down regulation of human STAT3 gene expression in human HEK293 cells cloned with FRQ vector harboring intact G-quadruplex at 2 to 10 uM after 24 hrs by luciferase reporter gene assay; assay type: cell-based
Nucleic Acid [6] = experiment: Binding affinity to STAT3 G-quadruplex in 3'-flanking region 5'-GGGCTGGGGATGGGGAGGGGG-3' assessed as melting temperature at 40 uM by UV-Vis spectrophotometry (reference value: 58 degC); assay type: nucleic-acid assay
Nucleic Acid [7] = experiment: Binding affinity to human VEGF G-quadruplex 5'-GGGGCGGGCCGGGGGCGGGG-3' assessed as the intensity ratio of all complex ions to the sum of all G-quadruplex and complex ions at 20 uM by ESI mass spectroscopy relative to control; assay type: nucleic-acid assay
Nucleic Acid [8] = experiment: Binding affinity to G-telomeric quadruplex 5'-GGGTTAGGGTTAGGGTTAGGG-3' assessed as the intensity ratio of all complex ions to the sum of all G-quadruplex and complex ions at 20 uM by ESI mass spectroscopy relative to control; assay type: nucleic-acid assay
HEK293 [9] = experiment: Down regulation of human STAT3 gene expression in human HEK293 cells cloned with DelQ vector harboring G-quadruplex G-rich sequence deletion at 2 to 10 uM after 24 hrs by luciferase reporter gene assay; assay type: functional, cell-based
HEK293 [10] = experiment: Down regulation of human STAT3 gene expression in human HEK293 cells cloned with MutQ vector harboring G-quadruplex GGG to GTG substitution mutation at 2 to 10 uM after 24 hrs by luciferase reporter gene assay; assay type: functional, cell-based
Nucleic Acid [11] = experiment: Binding affinity to STAT3 G-quadruplex in 3'-flanking region 5'-GGGCTGGGGATGGGGAGGGGG-3' assessed as melting temperature at 10 uM by UV-Vis spectrophotometry (reference value: 58 degC); assay type: nucleic-acid assay

Ratio (Nucleic Acid [2]) | Tm (Nucleic Acid [4]) [°C] | Tm (Nucleic Acid [6]) [°C] | Ratio (Nucleic Acid [7]) | Ratio (Nucleic Acid [8]) | Tm (Nucleic Acid [11]) [°C] | SMILES | Activity (Nucleic Acid [1]) | Activity (Nucleic Acid [3]) | inhibition (Nucleic Acid [5]) | inhibition (HEK293 [9]) | inhibition (HEK293 [10])
0.81 | 62 | 65 | 0.26 | 0.47 | 59 | COc1ccc2cc1Oc1ccc(cc1)C[C@H]1c3c(cc4c(c3Oc3cc5c(cc3OC)CCN(C)[C@@H]5C2)OCO4)CCN1C | Active | Active | Active | inactive | inactive
0.34 | – | – | – | – | – | COc1cc2c(cc1OC)-c1c(C)c3ccc(OC)c(OC)c3c[n+]1CC2 | – | – | – | – | –

SMILES | Ratio (Nucleic Acid [2]) | Tm (Nucleic Acid [4]) [°C] | Tm (Nucleic Acid [6]) [°C] | Ratio (Nucleic Acid [7]) | Ratio (Nucleic Acid [8]) | Tm (Nucleic Acid [11]) [°C] | Activity (Nucleic Acid [1]) | Activity (Nucleic Acid [3]) | inhibition (Nucleic Acid [5]) | inhibition (HEK293 [9]) | inhibition (HEK293 [10])
C[n+]1ccc(-c2c3nc(c(-c4cc[n+](C)cc4)c4ccc([nH]4)c(-c4cc[n+](C)cc4)c4ccc([nH]4)c(-c4cc[n+](C)cc4)c4nc2C=C4)C=C3)cc1 | 0.53 | – | – | – | – | – | Active | Active | Active | inactive | inactive
